For assay [1], the system named is TF1 JAK2 V617F STAT3 reporter. The assay is described as follows: Cellular TF1 STAT3 assay (luciferase reporter), JAK2 V617F. Type of assay: cell-based. The note with it: TF1 JAK2 V617F, read-out: Cell PD-TF1 JAK2 V617F STAT3 (IC50). In a few lines: (§1)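 TF1 erythroleukemia cells expressing V617F JAK2 with a STAT3 or STAT5 luciferase reporter were seeded at 10,000 cells/well onto compound (10-point, 1:3 dilutions; 10 mM top stock at 1000×) and incubated 18-20 h at 37 °C, 5% CO2. Luminescence was read after ONE-glo addition, 10 min at room temperature.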
Background: In a reporter assay the amount or activity of a reporter protein is the signal.

In assay [2] the target is T1, JAK2 JH2 WT (V536-D812) [W659A, W777A, F794H solubilizing mutations] (Homo sapiens, UniProt O60674, F794H/W659A/W777A).
T1 construct: **JAK2 JH2 WT (V536-D812) [W659A, W777A, F794H solubilizing mutations]; C-thrombin-avi-His6; thrombin cleavage site (C); His6 (C); purchased Biortus
T1 sequence (O60674 536-812 W659A/W777A/F794H): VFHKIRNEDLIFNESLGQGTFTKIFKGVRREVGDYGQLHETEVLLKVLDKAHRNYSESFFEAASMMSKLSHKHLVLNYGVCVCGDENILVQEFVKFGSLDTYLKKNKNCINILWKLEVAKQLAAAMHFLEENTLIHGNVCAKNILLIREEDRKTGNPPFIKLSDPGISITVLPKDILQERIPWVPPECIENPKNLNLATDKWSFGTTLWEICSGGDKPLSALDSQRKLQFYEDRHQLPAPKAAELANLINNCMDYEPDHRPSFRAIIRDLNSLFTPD
As to the kind of experiment: Surface Plasmon Resonance (SPR) binding assay, JAK2 JH2 domain. The note with it: SPR, JAK2 JH2 domain. An outline of the steps: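 Kinetics came from 1:1 fits of single-cycle runs at 20 °C: four 3-fold dilutions from 5 uM for JH1 or 500 nM for JH2, 60 s association, and 300 s or 1200 s dissociation respectively. Protein was freshly captured per compound in the presence of 10 uM stabilizer compound, with running buffer of pH 7.5 HEPES/NaCl/glycerol/DTT plus 2% DMSO.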

Assay [3] has as its system TF1 JAK2 V617F STAT5 reporter. The assay is described as follows: Cellular TF1 STAT5 assay (luciferase reporter), JAK2 V617F. Type of assay: cell-based. The note with it: TF1 JAK2 V617F, read-out: Cell PD TF1 V617F STAT5 (IC50). An outline of the steps: as §1

A word on the IC50: it is the concentration needed to halve the response being measured. The term Kd denotes the constant that tells how readily two partners part at equilibrium. A higher Kd goes with weaker binding. Regarding `CNC(=O)c1nnc(NC(=O)C2CC2)cc1Nc1cccc(-c2cnn(C3CN(Cc4cccc(F)c4F)C3)c2)c1OC` [Compound 129], the IC50 in assay [1] and in assay [3] was 500 to 5000 nM throughout. Further, in assay [2], the Kd is 10 to 50 nM.

As for `CNC(=O)c1nnc(NC(=O)C2CC2)cc1Nc1cccc(-c2cnn(C3CN(Cc4ccccc4)C3)c2)c1OC` [Compound 130], the IC50 in assay [1] and in assay [3] was 500 to 5000 nM each time. The same molecule registered a Kd in assay [2] of 0.01 to 10 nM.

With `CNC(=O)c1nnc(NC(=O)C2CC2)cc1Nc1cccc(-c2ccc(C(=O)N(C)Cc3cc(C#N)ccn3)c(F)c2)c1OC` [Compound 131], the 50% inhibitory concentration (IC50) in assay [1] and in assay [3] was 500 to 5000 nM in each case. The Kd in assay [2] is 0.01 to 10 nM.

Take `CNC(=O)c1nnc(NC(=O)C2CC2)cc1Nc1cccc(-c2ccc(C(=O)N(C)Cc3ccn(C)n3)c(F)c2)c1OC` [Compound 132]: the IC50 in assay [1] and in assay [3] was 500 to 5000 nM throughout. This molecule came in with a dissociation constant (Kd) in assay [2] of 0.01 to 10 nM.

Consider `CNC(=O)c1nnc(NC(=O)C2CC2)cc1Nc1cccc(-c2ccc(C(=O)N(C)Cc3ccc(C)cn3)nc2)c1OC` [Compound 134], for which the values for the IC50 in assay [1] and in assay [3] were 50 to 500 nM and 500 to 5000 nM, respectively. Further, the Kd in assay [2] was 0.01 to 10 nM.

As for `CNC(=O)c1nnc(NC(=O)C2CC2)cc1Nc1cccc(-c2ccc(C(=O)N(C)Cc3cc(C#N)ccn3)nc2C2CC2)c1OC` [Compound 137], the IC50 in assay [1] and in assay [3] was 5000 to 100000 nM throughout. This molecule came in with a Kd in assay [2] of 10 to 50 nM.

For `CNC(=O)c1nnc(NC(=O)C2CC2)cc1Nc1cccc(-c2cnn(C3CN(Cc4nnc(C)s4)C3)c2)c1OC` [Compound 144], the IC50 in assay [1] and in assay [3] was 500 to 5000 nM throughout. In assay [2], this molecule had a Kd of 0.01 to 10 nM.

Take `CNC(=O)c1nnc(NC(=O)C2CC2)cc1Nc1cccc(-c2cnc(C(=O)N(C)Cc3cc(C#N)ccn3)cc2C2CC2)c1OC` [Compound 153]: the IC50 in assay [1] and in assay [3] was 50 to 500 nM throughout. The same molecule registered a Kd in assay [2] of 0.01 to 10 nM.

Take `CNC(=O)c1nnc(NC(=O)C2CC2)cc1Nc1cccc(-c2ccc(C(=O)N(C)Cc3nccc(C#N)c3F)nc2)c1OC` [Compound 154]: the IC50 in assay [1] and in assay [3] was 5000 to 100000 nM throughout. In assay [2], the Kd was in the range of 0.01 to 10 nM.

As to `CNC(=O)c1nnc(NC(=O)C2CC2)cc1Nc1ccc(C)c(-c2ccc(C(=O)N(C)Cc3cn(C)nc3C)nc2)c1OC` [Compound 164], the IC50 in assay [1] and in assay [3] was 50 to 500 nM in each case. In addition, the Kd in assay [2] was 0.01 to 10 nM.

`CNC(=O)c1nnc(NC(=O)C2CC2)cc1Nc1cccc(-c2cn(C3CN(Cc4ccccn4)C3)nc2C(F)F)c1OC` [Compound 165]: the IC50 in assay [1] and in assay [3] was 500 to 5000 nM in each case. This molecule also registered a Kd in assay [2] of 0.01 to 10 nM.

Regarding `CNC(=O)c1nnc(NC(=O)C2CC2)cc1Nc1cccc(-c2ccc(C(=O)N(C)Cc3cnn(C)c3C)nc2)c1OC` [Compound 166], the IC50 in assay [1] and in assay [3] was 500 to 5000 nM throughout. The Kd in assay [2] was 0.01 to 10 nM.

`CNC(=O)c1nnc(NC(=O)C2CC2)cc1Nc1cccc(-c2ccc(C(=O)N(C)Cc3cccc(C)n3)nc2)c1OC` [Compound 167]: the IC50 in assay [1] and in assay [3] was 50 to 500 nM throughout. For the same molecule, the Kd in assay [2] lay within 0.01 to 10 nM.

With `CNC(=O)c1nnc(NC(=O)C2CC2)cc1Nc1cccc(-c2ccc(C(=O)N(C)Cc3c(C)nn(C)c3C)nc2)c1OC` [Compound 168], the 50% inhibitory concentration (IC50) in assay [1] and in assay [3] was 50 to 500 nM in each case. The molecule further registered a dissociation constant Kd in assay [2] of 0.01 to 10 nM.

Regarding `CNC(=O)c1nnc(NC(=O)C2CC2)cc1Nc1cccc(-c2cnn(C3CN(Cc4cccnc4Cl)C3)c2)c1OC` [Compound 169], the IC50 in assay [1] and in assay [3] was 50 to 500 nM each time. Besides, in assay [2], the Kd lay in the range of 0.01 to 10 nM.

Turning to `CNC(=O)c1nnc(NC(=O)C2CC2)cc1Nc1cccc(-c2ccc(C(=O)N(C)Cc3cc(C#N)ccn3)c(C(F)(F)F)c2)c1OC` [Compound 170], the IC50 in assay [1] and in assay [3] was 500 to 5000 nM in each case. For the same molecule, the Kd in assay [2] was 0.01 to 10 nM.

Regarding `CNC(=O)c1nnc(NC(=O)C2CC2)cc1Nc1cccc(-c2ccc(C(=O)N(C)Cc3ccn(C)n3)c(C(F)(F)F)c2)c1OC` [Compound 171], the IC50 in assay [1] and in assay [3] was 500 to 5000 nM throughout. For the same molecule, in assay [2], the Kd was in the range of 0.01 to 10 nM.

Consider `CNC(=O)c1nnc(NC(=O)C2CC2)cc1Nc1cccc(-c2cnc(C(=O)N(C)Cc3cn(C)nc3C)c(F)c2)c1OC` [Compound 172], for which the IC50 in assay [1] and in assay [3] was 50 to 500 nM throughout. Besides, the dissociation constant Kd in assay [2] lay in the range of 0.01 to 10 nM.

For the molecule `CNC(=O)c1nnc(NC(=O)C2CC2)cc1Nc1cccc(-c2cnn(C3CN(Cc4csnn4)C3)c2)c1OC` [Compound 173], the IC50 in assay [1] and in assay [3] was 50 to 500 nM throughout. The Kd in assay [2] was 0.01 to 10 nM.

For the molecule `CNC(=O)c1nnc(NC(=O)C2CC2)cc1Nc1cccc(-c2ccc(C(=O)N(C)Cc3csc(C)n3)nc2)c1OC` [Compound 174], the IC50 in assay [1] and in assay [3] was 50 to 500 nM each time. For the same molecule, the Kd in assay [2] lay in the range of 0.01 to 10 nM.

As for `CNC(=O)c1nnc(NC(=O)C2CC2)cc1Nc1cccc(-c2cc(C3CN(Cc4cnn(C)c4)C3)nn2C)c1OC` [Compound 175], the IC50 in assay [1] and in assay [3] was 5000 to 100000 nM throughout. Besides, the Kd in assay [2] lay within 0.01 to 10 nM.

For the molecule `CNC(=O)c1cnc(NC(=O)C2CC2)cc1Nc1cccc(-c2ccc(C(=O)N(C)Cc3cc(C#N)ccn3)nc2)c1OC` [Compound 176], the IC50 in assay [1] lay in the range of 500 to 5000 nM; in assay [3], 50 to 500 nM. Moreover, in assay [2], the Kd lay in the range of 0.01 to 10 nM.

Regarding `CNC(=O)c1nnc(NC(=O)C2CC2)cc1Nc1cccc(-c2cc(C3CN(Cc4cc(C#N)ccn4)C3)nn2C)c1OC` [Compound 177], the IC50 in assay [1] and in assay [3] was 5000 to 100000 nM throughout. The molecule also registered a Kd in assay [2] of 0.01 to 10 nM.

With `CNC(=O)c1nnc(NC(=O)C2CC2)cc1Nc1cccc(-c2ccc(C(=O)N(C)Cc3ncc(C#N)s3)nc2)c1OC` [Compound 178], the IC50 in assay [1] and in assay [3] was 5000 to 100000 nM throughout. In assay [2], this molecule registered a Kd of 0.01 to 10 nM.

For `CNC(=O)c1nnc(NC(=O)C2CC2)cc1Nc1cccc(-c2ccc(C(=O)N(C)Cc3cccc(OC(F)F)n3)nc2)c1OC` [Compound 179], the IC50 in assay [1] and in assay [3] was 500 to 5000 nM throughout. The molecule also had a Kd in assay [2] of 0.01 to 10 nM.

Turning to `CNC(=O)c1nnc(NC(=O)C2CC2)cc1Nc1ccc(C)c(-c2ccc(C(=O)N(C)Cc3nccs3)nc2)c1OC` [Compound 180], the IC50 in assay [1] and in assay [3] was 500 to 5000 nM throughout. In addition, the Kd in assay [2] lay in the range of 0.01 to 10 nM.

As to `CNC(=O)c1nnc(NC(=O)C2CC2)cc1Nc1cccc(-c2ccc(C3CN(Cc4ccccn4)C3)nc2)c1OC` [Compound 182], the IC50 in assay [1] is 5000 to 100000 nM; in assay [3], 500 to 5000 nM. In assay [2], this molecule had a Kd of 0.01 to 10 nM.

As to `CNC(=O)c1nnc(NC(=O)C2CC2)cc1Nc1cccc(-c2cn(C3CN(Cc4cccc(C#N)n4)C3)nn2)c1OC` [Compound 183], the values for the IC50 in assay [1] and in assay [3] were 500 to 5000 nM and 50 to 500 nM, respectively. Besides, the Kd in assay [2] was 0.01 to 10 nM.

Turning to `CNC(=O)c1nnc(NC(=O)C2CC2)cc1Nc1cccc(-c2cn(C3CN(Cc4ccccn4)C3)nc2C)c1OC` [Compound 184], the IC50 in assay [1] and in assay [3] was 500 to 5000 nM in each case. For the same molecule, the Kd in assay [2] was 0.01 to 10 nM.

For `CNC(=O)c1nnc(NC(=O)C2CC2)cc1Nc1cccc(-c2cn(C3CN(Cc4cccc(C#N)n4)C3)nc2C)c1OC` [Compound 185], the IC50 in assay [1] and in assay [3] was 500 to 5000 nM throughout. The Kd in assay [2] was in the range of 0.01 to 10 nM.

For the molecule `CNC(=O)c1nnc(NC(=O)C2CC2)cc1Nc1ccc(C)c(-c2cc(C3CCN(Cc4cc(C#N)ccn4)CC3)n(C)n2)c1OC` [Compound 186], the IC50 in assay [1] and in assay [3] was 5000 to 100000 nM throughout. Also, in assay [2], the Kd was in the range of 50 to 500 nM.

Turning to `CNC(=O)c1nnc(NC(=O)C2CC2)cc1Nc1cccc(-c2cc(C3CN(Cc4cnn(C)c4)C3)n(C)n2)c1OC` [Compound 187], the IC50 in assay [1] and in assay [3] was 5000 to 100000 nM each time. The molecule also came in with a Kd in assay [2] of 50 to 500 nM.

As to `CNC(=O)c1nnc(NC(=O)C2CC2)cc1Nc1cccc(-c2ccc(C(=O)N(C)Cc3cncc(C#N)c3)nc2)c1OC` [Compound 188], the IC50 in assay [1] and in assay [3] was 500 to 5000 nM in each case. Moreover, in assay [2], the Kd lay in the range of 0.01 to 10 nM.

Take `CNC(=O)c1nnc(NC(=O)C2CC2)cc1Nc1cccc(-c2cc(C3CN(Cc4ccccn4)C3)nn2C)c1OC` [Compound 189]: the IC50 in assay [1] and in assay [3] was 5000 to 100000 nM each time. In assay [2], the Kd was in the range of 10 to 50 nM.

Turning to `CNC(=O)c1cnc(NC(=O)C2CC2)cc1Nc1cccc(-c2cnn(C3CN(Cc4ccccn4)C3)c2)c1OC` [Compound 190], the IC50 in assay [1] and in assay [3] was 500 to 5000 nM in each case. This molecule also yielded a Kd in assay [2] of 0.01 to 10 nM.

Turning to `CNC(=O)c1nnc(NC(=O)C2CC2)cc1Nc1cccc(-c2cc(C3CN(Cc4cccc(C#N)n4)C3)nn2C)c1OC` [Compound 191], the IC50 in assay [1] and in assay [3] was 5000 to 100000 nM in each case. The Kd in assay [2] was in the range of 10 to 50 nM.

Take `CNC(=O)c1nnc(NC(=O)C2CC2)cc1Nc1cccc(-c2ccc(C(=O)N(C)Cc3cnsc3)nc2)c1OC` [Compound 195]: the IC50 in assay [1] and in assay [3] was 500 to 5000 nM each time. In addition, the Kd in assay [2] was in the range of 0.01 to 10 nM.
